Experimental data reported in patent publication US20250099514A1, “FISH REARING COMPOSITION, AND COMPOSITION FOR PREVENTING OR TREATING FISH DISEASES” (SUMITOMO CHEMICAL COMPANY, LIMITED, priority 2021, published 2025).
Non-standard residues stand in square brackets, D forms with d. Primed or numbered codes have the meaning given here. No end group written: not given here. Dhb′ = not defined here; Dha = C=C(N)C(=O)O

Legend:
[1] = system: Lactococcus garvieae type I (TUMSAT-K9408 strain); assay: Antibacterial activity test: growth of Lactococcus garvieae type I after shaking culture with the test substance, colony formation on TH agar; format: cell-based; conditions: Experiments 8 and 9, 1 to 10 μM
Description: (§1) Examination was performed on whether bacterial cell preparations of NITE BP-03198, NITE BP-03199, NITE BP-03200, NITE BP-03202, ATCC-11454, and NITE ABP-03481 inhibit the growth of Lactococcus garvieae type I (TUMSAT-K9408 strain) and type II (TUMSAT-LgN1 strain). With reference to FIG. 7, the experimental method will be described. To 270 μL of Todd-Hewitt (TH) medium 10, 30 μL of a lactic acid bacterial cell preparation 11 was added. Furthermore, 3 μL of a bacterial solution 12 containing Lactococcus garvieae (approximately 10^5 cfu/mL) was added, and shaking culture was performed at 25° C. for 8 hours. To TH agar medium 14, 5 μL of a bacterial culture solution 13 was dropped, culture was performed at 25° C. for 12 hours, and whether a colony 15 of Lactococcus garvieae formed was observed. If the number of colonies observed was five or less, it was determined that there was antibacterial activity. Lactic acid bacterial cell preparations were prepared in the following manner. For NITE BP-03198, NITE BP-03199, NITE BP-03200, and NITE BP-03202, first, the lactic acid bacteria were each cultured in MRS Broth at a temperature of 30° C., giving culture solutions. Thereafter, the culture solutions were centrifuged to precipitate bacterial cells, and the culture supernatants were collected. […]

[2] = system: Lactococcus garvieae type II (TUMSAT-LgN1 strain); assay: Antibacterial activity test: growth of Lactococcus garvieae type II after shaking culture with the test substance, colony formation on TH agar; format: cell-based; conditions: Experiments 8 and 9, 1 to 10 μM
Description: as §1

[3] = system: Lactococcus garvieae type I (TUMSAT-K9408 strain); assay: Antibacterial activity test: growth of Lactococcus garvieae type I after shaking culture with the test substance, colony formation on TH agar; format: cell-based; parameters: key: +: presence of antibacterial activity; −: absence of antibacterial activity; conditions: 25° C., 8 hours
Description: (§2) Examination was performed on whether bacterial cell preparations of NITE BP-03198, NITE BP-03199, NITE BP-03200, NITE BP-03202, ATCC-11454, and NITE ABP-03481 inhibit the growth of Lactococcus garvieae type I (TUMSAT-K9408 strain) and type II (TUMSAT-LgN1 strain). With reference to FIG. 7, the experimental method will be described. To 270 μL of Todd-Hewitt (TH) medium 10, 30 μL of a lactic acid bacterial cell preparation 11 was added. Furthermore, 3 μL of a bacterial solution 12 containing Lactococcus garvieae (approximately 10^5 cfu/mL) was added, and shaking culture was performed at 25° C. for 8 hours. To TH agar medium 14, 5 μL of a bacterial culture solution 13 was dropped, culture was performed at 25° C. for 12 hours, and whether a colony 15 of Lactococcus garvieae formed was observed. If the number of colonies observed was five or less, it was determined that there was antibacterial activity. Lactic acid bacterial cell preparations were prepared in the following manner. For NITE BP-03198, NITE BP-03199, NITE BP-03200, and NITE BP-03202, first, the lactic acid bacteria were each cultured in MRS Broth at a temperature of 30° C., giving culture solutions. Thereafter, the culture solutions were centrifuged to precipitate bacterial cells, and the culture supernatants were collected. The culture supernatants collected were 10-fold concentrated by using an ultrafiltration membrane (Merck Millipore, AMICON ULTRA-15 3 KDa cutoff), giving bacterial cell preparations. For ATCC-11454 and NITE ABP-03481, bacterial cell preparations were obtained in the same manner as described for NITE BP-03198 and others. As a negative control, medium for lactic acid bacteria (MRS Broth) was added to a bacterial solution containing Lactococcus garvieae.
(§3) Examination was performed on whether synthetic plantaricins inhibit the growth of Lactococcus garvieae type I (TUMSAT-K9408 strain) and type II (TUMSAT-LgN1 strain). The method in Experiment 8 is the same as that in Experiment 7 except that synthetic plantaricins were used in place of the lactic acid bacterial cell preparations. Each synthetic plantaricin was synthesized by using common techniques of organic synthesis. A solution containing plantaricin A (plantaricin A), a solution obtained by mixing plantaricin E and plantaricin F at a ratio (mole ratio) of 1:1 (plantaricin EF), a solution obtained by mixing plantaricin J and plantaricin K at a ratio (mole ratio) of 1:1 (plantaricin JK), or a solution obtained by mixing plantaricin NC8α and plantaricin NC8β at a ratio (mole ratio) of 1:1 (plantaricin NC8αβ) was added to a bacterial solution containing Lactococcus garvieae, and shaking culture was performed at 25° C. for 8 hours. The bacterial solutions containing Lactococcus garvieae after culture were each dropped on agar medium, and whether a colony of Lactococcus garvieae formed was observed.
Examination was performed on whether a purified product of nisin A inhibits the growth of Lactococcus garvieae type I (TUMSAT-K9408 strain) and type II (TUMSAT-LgN1 strain). The method in Experiment 9 is the same as those in Experiments 7 and 8 except that a purified product of nisin A was used in place of the lactic acid bacterial cell preparations or the synthetic plantaricins. A purified product of nisin A (manufactured by Sigma-Aldrich Co. LLC) was dissolved in water and removed of insoluble components by centrifugation, giving a nisin A solution. […]

[4] = system: Lactococcus garvieae type II (TUMSAT-LgN1 strain); assay: Antibacterial activity test: growth of Lactococcus garvieae type II after shaking culture with the test substance, colony formation on TH agar; format: cell-based; parameters: key: +: presence of antibacterial activity; −: absence of antibacterial activity; conditions: 25° C., 8 hours
Description: as §2
as §3, with “The bacterial solutions containing Lactococcus garvieae after culture were each dropped on agar medium, and whether a colony of Lactococcus garvieae formed was observed.” left out

[5] = system: Lactococcus garvieae 03/8460 strain; conditions: NPL 3; cited from earlier work
[6] = system: Lactococcus garvieae CLG4 strain; conditions: NPL 4; cited from earlier work
[7] = system: Lactococcus garvieae type I (TUMSAT-K9408 strain); assay: Antibacterial activity test: growth of Lactococcus garvieae type I after shaking culture with the test substance, colony formation on TH agar; format: cell-based; parameters: key: +: presence of antibacterial activity,; −: absence of antibacterial activity; conditions: synthetic plantaricin 10 μM; 25° C., 8 hours
Description: as §1

[8] = system: Lactococcus garvieae type II (TUMSAT-LgN1 strain); assay: Antibacterial activity test: growth of Lactococcus garvieae type II after shaking culture with the test substance, colony formation on TH agar; format: cell-based; parameters: key: +: presence of antibacterial activity,; −: absence of antibacterial activity; conditions: 25° C., 8 hours
Description: as §1

## nisin A (I[Dhb′]SI[Dha]LCTPGCKTGALMGCNMKTATCHCSIHV[Dha]K; thioether (positions not given here); not fully specified (residues 3, 8, 13, 23, 25, bridges); also: lanthionine thioether rings and dehydro residues not placed; UniProt P13068 24-57, looked up) [purified product of nisin A (manufactured by Sigma-Aldrich Co. LLC) dissolved in water]
[1]
  Inhibition of the growth of Lactococcus garvieae type I (in words): inhibited the growth
[2]
  Inhibition of the growth of Lactococcus garvieae type II (in words): inhibited the growth
[3]; nisin A solution 1 μM
  Antibacterial activity, Lactococcus garvieae TUMSAT-K9408: +
[3]; nisin A solution 3 μM
  Antibacterial activity, Lactococcus garvieae TUMSAT-K9408: +
[3]; nisin A solution 10 μM
  Antibacterial activity, Lactococcus garvieae TUMSAT-K9408: +
[4]; nisin A solution 1 μM
  Antibacterial activity, Lactococcus garvieae TUMSAT-LgN1: +
[4]; nisin A solution 3 μM
  Antibacterial activity, Lactococcus garvieae TUMSAT-LgN1: +
[4]; nisin A solution 10 μM
  Antibacterial activity, Lactococcus garvieae TUMSAT-LgN1: +

## nisin Z (I[Dhb′]SI[Dha]LCTPGCKTGALMGCNMKTATCNCSIHV[Dha]K; thioether (positions not given here); not fully specified (residues 3, 8, 13, 23, 25, bridges); also: lanthionine thioether rings and dehydro residues not placed; UniProt P29559 24-57, looked up) [antibacterial peptide produced by Lactococcus lactis strains TW34 and WA2-67 (literature)]
[5]
  Growth of the Lactococcus garvieae 03/8460 strain: inhibited the growth
[6]
  Growth of the Lactococcus garvieae CLG4 strain: inhibited the growth

## plantaricin A
[1]
  Inhibition of the growth of Lactococcus garvieae type I (in words): inhibited the growth
[2]
  Inhibition of the growth of Lactococcus garvieae type II (in words): inhibited the growth
[3]; synthetic plantaricin 1 μM
  Antibacterial activity, Lactococcus garvieae TUMSAT-K9408: −
[3]; synthetic plantaricin 3 μM
  Antibacterial activity, Lactococcus garvieae TUMSAT-K9408: −
[4]; synthetic plantaricin 1 μM
  Antibacterial activity, Lactococcus garvieae TUMSAT-LgN1: −
[7]
  Antibacterial activity, Lactococcus garvieae TUMSAT-K9408: +
[8]; synthetic plantaricin 3 μM
  Antibacterial activity, Lactococcus garvieae TUMSAT-LgN1: +
[8]; synthetic plantaricin 10 μM
  Antibacterial activity, Lactococcus garvieae TUMSAT-LgN1: +
